Data: patent publication US20150030642A1, “POLYMER MICRO-NEEDLE ARRAY CHIP, PREPARATION PROCESS AND USE THEREOF” (Technical Institute of Physics and Chemistry of the Chinese …, priority 2012, published 2015)

Tests used:
[1] = Journal of Pharmaceutical Sciences, 1998, 87, 922-925; cited from earlier work
[2] = tested on: pigskin used for simulated human skin
Source text: Freezing pigskin used for simulated human skin was thawed; sites of pesticide application were cleaned and disinfected after thawed;

Compound	transdermal permeability speed, micro-needle versus traditional transdermal drug delivery [1]	penetration of skin [2]
O=C(O)CN(CC(=O)O)Cc1cc2c(cc1O)Oc1cc(O)c(CN(CC(=O)O)CC(=O)O)cc1C21OC(=O)c2ccccc21 [calcein]	increased by four orders of magnitude	
bovine serum albumin		could penetrate the skin
